Source: US20260022143A1, “Cyclic Peptide Inhibitors of IL-23” (JANSSEN PHARMACEUTICA NV, priority 2022, published 2026)
Starred links: 1 amine or outer side, 2 acyl side, 3 side chain; linkers in the order of their positions; H or OH if unused. Positions of bridges follow the written chain, without caps; N, C: chain ends. Non-standard residues stand in square brackets, D forms with d. Residues, ends and D or L forms follow the SMILES beside them. *: point of attachment. Me3N+CH2CH2(OCH2CH2)4CO = C[N+](C)(C)CCOCCOCCOCCOCCC(=O)*; Me3N+(CH2)2O(CH2)2O(CH2)2CO = C[N+](C)(C)CCOCCOCCC(=O)*; X35 = Cc1cccc2c(C[C@H](N[*:1])C(=O)[*:2])cn(C)c12; Trp(7-Me) = Cc1cccc2c(C[C@H](N)C(=O)O)c[nH]c12; d(hLys(Me3)) = C[N+](C)(C)CCCCC[C@@H](N)C(=O)O; Decanoyl(3,6,9-trioxa) = COCCOCCOCC(=O)*; Dab(NMeAc) = CC(=O)N(C)CC[C@H](N)C(=O)O; X1 = CN(CC[C@H](N[*:1])C(=O)[*:2])[*:3]; 2Nal = N[C@@H](Cc1ccc2ccccc2c1)C(=O)O; AEF = NCCOc1ccc(C[C@H](N)C(=O)O)cc1; X24 = C[N+](C)(CCN[*:1])CC(=O)[*:2]; 3Pal = N[C@@H](Cc1cccnc1)C(=O)O; Lys(Me) = CNCCCC[C@H](N)C(=O)O; X5 = C[N+](C)(C)CCOCCOCC(=O)*; Pen = CC(C)(S)[C@H](N)C(=O)O; Thp = NC1(C(=O)O)CCOCC1; X3 = C[N+](C)(C)CCCCC*; Sar = CNCC(=O)O

Experiments:
IL-23R = biological target: T1, IL-23R (Homo sapiens, UniProt Q5VWK5); assay: IL23R Reporter Assay; format: cell-based; details: HEK293 cells containing IL-23R, IL-12RP1 and STAT-inducible firefly luciferase reporter; 10 ng/mL IL-23 (EC90); 5 h at 37° C.; read-out: IL23R Reporter Assay
T1 construct: host or cells: HEK293
T1 sequence (Q5VWK5 24-629): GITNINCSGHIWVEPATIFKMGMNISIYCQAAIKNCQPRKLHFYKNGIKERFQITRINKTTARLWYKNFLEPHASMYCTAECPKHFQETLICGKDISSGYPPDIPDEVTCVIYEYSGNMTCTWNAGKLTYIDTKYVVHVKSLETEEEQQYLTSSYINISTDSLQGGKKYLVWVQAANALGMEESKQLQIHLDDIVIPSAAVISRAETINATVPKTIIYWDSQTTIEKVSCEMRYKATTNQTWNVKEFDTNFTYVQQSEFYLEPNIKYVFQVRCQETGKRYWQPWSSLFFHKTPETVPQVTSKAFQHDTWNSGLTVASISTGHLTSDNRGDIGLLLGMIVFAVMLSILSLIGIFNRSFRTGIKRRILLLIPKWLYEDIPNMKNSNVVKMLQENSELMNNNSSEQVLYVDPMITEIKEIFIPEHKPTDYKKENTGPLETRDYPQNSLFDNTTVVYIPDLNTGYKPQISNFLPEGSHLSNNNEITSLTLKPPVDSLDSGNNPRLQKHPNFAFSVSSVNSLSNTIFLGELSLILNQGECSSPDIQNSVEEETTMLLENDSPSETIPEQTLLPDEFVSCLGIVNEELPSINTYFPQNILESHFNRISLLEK

[1] = Exposed Polar Surface Area (EPSA); format: physicochemical; details: SFC on Chirex 3014 column; sample 1 mM DMSO stock; read-out: EPSA
How it was run: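 Chirex 3014 column, 35 °C, 4 mL/min; CO2/MeOH + 20 mM NH4 formate, 5→60% modifier at 20%/min. UV/MS detection. EPSA (Å^2) from retention time vs 8-standard calibration line; duplicates; 1 mM DMSO stock injected undiluted.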

Compound: COCCOCCOCC(=O)NCC[N+](C)(C)CC(=O)N[C@@H]1C(=O)N[C@@H](CC(=O)N(C)C)C(=O)N[C@@H]([C@@H](C)O)C(=O)N[C@@H](Cc2c[nH]c3c(C)cccc23)C(=O)N[C@@H](CCCCN(C)C(C)=O)C(=O)N[C@H](C(=O)N[C@@H](Cc2ccc(OCCN)cc2)C(=O)N[C@@H](Cc2ccc3ccccc3c2)C(=O)NC2(C(=O)N[C@@H](CCCCNC(C)=O)C(=O)N[C@@H](CC(N)=O)C(=O)N[C@@H](Cc3cccnc3)C(=O)N(C)CC(N)=O)CCOCC2)C(C)(C)SSC1(C)C [compound 148, mPEG3CO-SP6-Pen(3)-N(N(Me)2)-T-7MeW-K(NMeAc)-Pen(3)-AEF-2Nal-THP-K(Ac)-N-3Pya-Sar-CONH2] ({Decanoyl(3,6,9-trioxa)}-[X24][Pen]D(NMe2)T[Trp(7-Me)][Lys(Me)](Ac)[Pen][AEF][2Nal][Thp]K(Ac)N[3Pal][Sar]-NH2; disulfide 2-7)
- IC50 (IL-23R): 2.6 nM
- EPSA [1]: 153 A^2

Compound: CC(=O)NCCCC[C@H](NC(=O)C1(NC(=O)[C@H](Cc2ccc3ccccc3c2)NC(=O)[C@H](Cc2ccc(OCCN)cc2)NC(=O)[C@H]2NC(=O)[C@H](CCCCN(C)C(C)=O)NC(=O)[C@H](Cc3c[nH]c4c(C)cccc34)NC(=O)[C@H]([C@@H](C)O)NC(=O)[C@H](CC(=O)N(C)C)NC(=O)[C@@H](NC(=O)CCOCCOCC[N+](C)(C)C)C(C)(C)SSC2(C)C)CCOCC1)C(=O)N[C@@H](CC(N)=O)C(=O)N[C@@H](Cc1cccnc1)C(=O)N(C)CC(N)=O [compound 149, cPEG3aCO-Pen(3)-N(N(Me)2)-T-7MeW-K(NMeAc)-Pen(3)-AEF-2Nal-THP-K(Ac)-N-3Pya-Sar-CONH2] ({Me3N+(CH2)2O(CH2)2O(CH2)2CO}-[Pen]D(NMe2)T[Trp(7-Me)][Lys(Me)](Ac)[Pen][AEF][2Nal][Thp]K(Ac)N[3Pal][Sar]-NH2; disulfide 1-6)
- IC50 (IL-23R): 2.1 nM
- EPSA [1]: 157 A^2

Compound: COCCOCCOCC(=O)NCC[N+](C)(C)CC(=O)N[C@@H]1C(=O)N[C@@H](CC(=O)N(C)C)C(=O)N[C@@H]([C@@H](C)O)C(=O)N[C@@H](Cc2c[nH]c3c(C)cccc23)C(=O)N[C@@H](CCCCN(C)C(C)=O)C(=O)N[C@H](C(=O)N[C@@H](Cc2ccc(OCCN)cc2)C(=O)N[C@@H](Cc2ccc3ccccc3c2)C(=O)NC2(C(=O)N[C@@H](CCC(=O)N(C)C)C(=O)N[C@@H](CC(N)=O)C(=O)N[C@@H](Cc3cccnc3)C(=O)N(C)CC(N)=O)CCOCC2)C(C)(C)SSC1(C)C [compound 152, mPEG3CO-SP6-Pen(3)-N(N(Me)2)-T-7MeW-K(NMeAc)-Pen(3)-AEF-2Nal-THP-QNMe2-N-3Pya-Sar-CONH2] ({Decanoyl(3,6,9-trioxa)}-[X24][Pen]D(NMe2)T[Trp(7-Me)][Lys(Me)](Ac)[Pen][AEF][2Nal][Thp]E(NMe2)N[3Pal][Sar]-NH2; disulfide 2-7)
- IC50 (IL-23R): 1.6 nM
- EPSA [1]: 155 A^2

Compound: CC(=O)NCCCC[C@@H]1NC(=O)[C@H](Cc2c[nH]c3c(C)cccc23)NC(=O)[C@H]([C@@H](C)O)NC(=O)[C@H](CC(N)=O)NC(=O)[C@@H](NC(C)=O)C(C)(C)SSC(C)(C)[C@@H](C(=O)N[C@@H](Cc2ccc(OCCN)cc2)C(=O)N[C@@H](Cc2ccc3ccccc3c2)C(=O)NC2(C(=O)N[C@@H](CCCCNC(C)=O)C(=O)N[C@@H](CC(N)=O)C(=O)N(C)C)CCOCC2)NC1=O [compound 153] (Ac-[Pen]NT[Trp(7-Me)]K(Ac)[Pen][AEF][2Nal][Thp]K(Ac)N-NMe2; disulfide 1-6 (inferred))
- IC50 (IL-23R): 270 nM
- EPSA [1]: 171 A^2

Compound: Cc1cccc2c(C[C@@H]3NC(=O)[C@H]([C@@H](C)O)NC(=O)[C@H](CC(N)=O)NC(=O)[C@@H](NC(=O)CCOCCOCC[N+](C)(C)C)C(C)(C)SSC(C)(C)[C@@H](C(=O)N[C@@H](Cc4ccc(OCCN)cc4)C(=O)N[C@@H](Cc4ccc5ccccc5c4)C(=O)NC4(C(=O)N[C@@H](CCC(=O)N(C)C)C(=O)N[C@@H](CC(N)=O)C(=O)N[C@@H](Cc5cccnc5)C(=O)N(C)CC(=O)N(C)C)CCOCC4)NC(=O)[C@H](CCC(=O)N(C)C)NC3=O)c[nH]c12 [compound 156, cPEG3aCO-Pen(3)-N-T-7MeW-Q(N(Me)2)-Pen(3)-AEF-2Nal-THP-Q(N(Me)2)-N-3Pya-Sar-CON(Me)2] ({Me3N+(CH2)2O(CH2)2O(CH2)2CO}-[Pen]NT[Trp(7-Me)]E(NMe2)[Pen][AEF][2Nal][Thp]E(NMe2)N[3Pal][Sar]-NMe2; disulfide 1-6)
- IC50 (IL-23R): 2 nM
- EPSA [1]: 155 A^2

Compound: CC(=O)N(C)CC[C@H](NC(=O)C1(NC(=O)[C@H](Cc2ccc3ccccc3c2)NC(=O)[C@H](Cc2ccc(OCCN)cc2)NC(=O)[C@H]2NC(=O)[C@H](CCC(=O)N(C)C)NC(=O)[C@H](Cc3c[nH]c4c(C)cccc34)NC(=O)[C@H]([C@@H](C)O)NC(=O)[C@H](CC(=O)N(C)C)NC(=O)[C@@H](NC(=O)CCOCCOCC[N+](C)(C)C)C(C)(C)SSC2(C)C)CCOCC1)C(=O)N[C@@H](CC(N)=O)C(=O)N[C@@H](Cc1cccnc1)C(=O)N(C)CC(=O)N(C)C [compound 159, cPEG3aCO-Pen(3)-N(N(Me)2)-T-7MeW-Q(N(Me)2)-Pen(3)-AEF-2Nal-THP-Dab(NMeAc)-N-3Pya-Sar-CON(Me)2] ({Me3N+(CH2)2O(CH2)2O(CH2)2CO}-[Pen]D(NMe2)T[Trp(7-Me)]E(NMe2)[Pen][AEF][2Nal][Thp][Dab(NMeAc)]N[3Pal][Sar]-NMe2; disulfide 1-6)
- IC50 (IL-23R): 1.8 nM
- EPSA [1]: 149 A^2

Compound: CC(=O)N[C@H](CCCCC[N+](C)(C)C)C(=O)N[C@@H]1C(=O)N[C@@H](CC(=O)N(C)C)C(=O)N[C@@H]([C@@H](C)O)C(=O)N[C@@H](Cc2c[nH]c3c(C)cccc23)C(=O)N[C@@H](CCCCN(C)C(C)=O)C(=O)N[C@H](C(=O)N[C@@H](Cc2ccc(OCCN)cc2)C(=O)N[C@@H](Cc2ccc3ccccc3c2)C(=O)NC2(C(=O)N[C@@H](CCC(=O)O)C(=O)N[C@@H](CC(N)=O)C(=O)N[C@@H](Cc3cccnc3)C(=O)N(C)CC(=O)N(C)C)CCOCC2)C(C)(C)SSC1(C)C [compound 163, MeCO-hk(Me)3-Pen(3)-N(N(Me)2)-T-7MeW-K(NMeAc)-Pen(3)-AEF-2Nal-THP-E-N-3Pya-Sar-CON(Me)2] (Ac-[d(hLys(Me3))][Pen]D(NMe2)T[Trp(7-Me)][Lys(Me)](Ac)[Pen][AEF][2Nal][Thp]EN[3Pal][Sar]-NMe2; disulfide 2-7 (inferred))
- IC50 (IL-23R): 3.2 nM
- EPSA [1]: 168 A^2

Compound: CC(=O)N(C)CCCC[C@@H]1NC(=O)[C@H](Cc2c[nH]c3c(C)cccc23)NC(=O)[C@H]([C@@H](C)O)NC(=O)[C@H](CC(=O)N(C)C)NC(=O)[C@@H](NC(=O)CCOCCOCC[N+](C)(C)C)C(C)(C)SSC(C)(C)[C@@H](C(=O)N[C@@H](Cc2ccc(OCCCCC[N+](C)(C)C)cc2)C(=O)N[C@@H](Cc2ccc3ccccc3c2)C(=O)NC2(C(=O)N[C@@H](CCC(=O)O)C(=O)N[C@@H](CC(N)=O)C(=O)N[C@@H](Cc3cccnc3)C(=O)N(C)CC(=O)N(C)C)CCOCC2)NC1=O [compound 165, cPEG3aCO-Pen(3)-N(N(Me)2)-T-7MeW-K(NMeAc)-Pen(3)-TMAPF-2Nal-THP-E-N-3Pya-Sar-CON(Me)2] ({Me3N+(CH2)2O(CH2)2O(CH2)2CO}-[Pen]D(NMe2)T[Trp(7-Me)][Lys(Me)](Ac)[Pen]Y(X3)[2Nal][Thp]EN[3Pal][Sar]-NMe2; disulfide 1-6)
- IC50 (IL-23R): 4.3 nM
- EPSA [1]: 151 A^2

Compound: CC(=O)NCCCC[C@@H]1NC(=O)[C@H](Cc2cn(C)c3c(C)cccc23)NC(=O)[C@H]([C@@H](C)O)NC(=O)[C@H](CC(N)=O)NC(=O)[C@@H](NC(C)=O)C(C)(C)SSC(C)(C)[C@@H](C(=O)N[C@@H](Cc2ccc(OCCN)cc2)C(=O)N[C@@H](Cc2ccc3ccccc3c2)C(=O)NC2(C(=O)N[C@@H](CCC(=O)O)C(=O)N[C@@H](CC(N)=O)C(=O)N[C@@H](Cc3cccnc3)C(=O)N(C)CC(N)=O)CCOCC2)NC1=O [compound 166] (Ac-[Pen]NT[X35]K(Ac)[Pen][AEF][2Nal][Thp]EN[3Pal][Sar]-NH2; disulfide 1-6 (inferred))
- IC50 (IL-23R): 3 nM
- EPSA [1]: 179 A^2

Compound: Cc1cccc2c(C[C@@H]3NC(=O)[C@H]([C@@H](C)O)NC(=O)[C@H](CC(=O)N(C)C)NC(=O)[C@@H](NC(=O)CCOCCOCCOCCOCC[N+](C)(C)C)C(C)(C)SSC(C)(C)[C@@H](C(=O)N[C@@H](Cc4ccc(OCCN)cc4)C(=O)N[C@@H](Cc4ccc5ccccc5c4)C(=O)NC4(C(=O)N[C@@H](CCN(C)C(=O)COCCOCC[N+](C)(C)C)C(=O)N[C@@H](CC(N)=O)C(=O)N[C@@H](Cc5cccnc5)C(=O)N(C)CC(=O)N(C)C)CCOCC4)NC(=O)[C@H](CCN(C)C(=O)COCCOCC[N+](C)(C)C)NC3=O)c[nH]c12 [compound 172, cPEG5aCO-Pen(3)-N(N(Me)2)-T-7MeW-Dab(NMecPEG2a)-Pen(3)-AEF-2Nal-THP-Dab(NMecPEG2a)-N-3Pya-Sar-CON(Me)2] ({Me3N+CH2CH2(OCH2CH2)4CO}-[Pen]D(NMe2)T[Trp(7-Me)][X1](X5)[Pen][AEF][2Nal][Thp][X1](X5)N[3Pal][Sar]-NMe2; disulfide 1-6)
- IC50 (IL-23R): 6.5 nM
- EPSA [1]: 145 A^2
